For orientation: inhibition means how much of the control response was suppressed.

The text below walks through data of patent publication EP4722201A1, “3-PHENYLISOXAZOLINE-5-CARBOXAMIDE COMPOUND, AND PREPARATION METHOD THEREFOR, HERBICIDAL COMPOSITION THEREOF AND USE THEREOF” (Jiangsu Flag Chemical Industry Co., Ltd, priority 2023, dated 2024).

Experiment in all cases: Indoor herbicide activity determination, Seed Treatment; pre-emergence (soil spray)
Common to all, as to assay type: in vivo

Assay [1] relates to Leptochloa chinensis. To be noted: Dosage 240 g a.i./ha. The method, boiled down: (§1)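 Readout is percent inhibition of fresh weight relative to control plants, determined 21 days after treatment. Soil was sprayed one day after sowing, in a spray tower at 300 mm height and 390 mL/min nozzle flow, onto sandy soil of pH 6.1 with 1% organic matter.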
Assay [2] deals with Digitaria sanguinalis. To be noted: 120 g a.i./ha, read-out: Herbicidal activities (inhibition rate) Digitaria sanguinalis. The procedure, abridged:
as §1

The test system of assay [3] is Aegilops tauschii. The conditions noted are these: 120 g a.i./ha, read-out: Herbicidal activities (inhibition rate) Aegilops tauschii. The method, boiled down: as §1
The test system of assay [4] is Eclipta prostrata. The conditions noted are these: 120 g a.i./ha, read-out: Herbicidal activities (inhibition rate) Eclipta prostrata. The method, boiled down: as §1
For assay [5], the system named is Cyperus iria. To be noted: 120 g a.i./ha, read-out: Herbicidal activities (inhibition rate) Cyperus iria. The procedure, abridged: as §1
Assay [6] has as its system Alopecurus myosuroides. The conditions noted are these: Dosage 240 g a.i./ha. The procedure, abridged: as §1
Assay [7] relates to Alopecurus japonicus. To be noted: Dosage 240 g a.i./ha. The method, boiled down:
as §1

Assay [8] relates to Lolium multiflorum. To be noted: Dosage 240 g a.i./ha. The procedure, abridged: as §1

For the compound `COC(=O)C1CC(NC(=O)C2(C(F)(F)F)CC(c3cc(Cl)cc(OC(F)(F)F)c3)=NO2)CO1` (stereo not shown) [I-400], the “Herbicidal activities, Leptochloa chinensis (inhibition rate class)” value in assay [1] is given as “A (A indicates that the inhibition rate was greater than or equal to 80% to 100%)”. Moreover, the inhibition at 120 g/ha in assay [2] lay in the range of 80 to 100%; in assay [3], 80 to 100%; in assay [4], 80 to 100%; in assay [5], 60 to 80%. Besides, in assay [6], the “Herbicidal activities, Alopecurus myosuroides (inhibition rate class)” value is “A (A indicates that the inhibition rate was greater than or equal to 80% to 100%)”.

Turning to `COC(=O)C1CC(NC(=O)C2(C(F)(F)F)CC(c3cc(F)cc(C(F)(F)F)c3)=NO2)CO1` (stereo not shown) [I-392], in assay [1], the “Herbicidal activities, Leptochloa chinensis (inhibition rate class)” value was “A (A indicates that the inhibition rate was greater than or equal to 80% to 100%)”. Also, the inhibition at 120 g/ha in assay [2] is 80 to 100%; in assay [3] it was 80 to 100%; in assay [4] it was 60 to 80%; in assay [5] it was 60 to 80%. Further, the “Herbicidal activities, Alopecurus japonicus (inhibition rate class)” value in assay [7] is “A (A indicates that the inhibition rate was greater than or equal to 80% to 100%)”. In addition, the “Herbicidal activities, Alopecurus myosuroides (inhibition rate class)” value in assay [6] is listed as “A (A indicates that the inhibition rate was greater than or equal to 80% to 100%)”. Moreover, in assay [8], the “Herbicidal activities, Lolium multiflorum (inhibition rate class)” value is recorded as “A (A indicates that the inhibition rate was greater than or equal to 80% to 100%)”.

For the compound `COC(=O)C1CC(NC(=O)C2(C)CC(c3cc(Cl)cc(OC(F)F)c3)=NO2)CO1` (stereo not shown) [I-390], the “Herbicidal activities, Leptochloa chinensis (inhibition rate class)” value in assay [1] is listed as “A (A indicates that the inhibition rate was greater than or equal to 80% to 100%)”. For the same compound, the inhibition at 120 g/ha in assay [2] fell in the range of 60 to 80%; in assay [3], 80 to 100%; in assay [4], 60 to 80%; in assay [5], 60 to 80%. The “Herbicidal activities, Alopecurus japonicus (inhibition rate class)” value in assay [7] is “A (A indicates that the inhibition rate was greater than or equal to 80% to 100%)”. Moreover, the “Herbicidal activities, Alopecurus myosuroides (inhibition rate class)” value in assay [6] was “A (A indicates that the inhibition rate was greater than or equal to 80% to 100%)”. Moreover, the “Herbicidal activities, Lolium multiflorum (inhibition rate class)” value in assay [8] is listed as “B (B indicates that the inhibition rate was greater than or equal to 60% to less than 80%)”.

As for `CC1(C(=O)NC2COC(C(=O)O)C2)CC(c2cc(Cl)cc(OC(F)F)c2)=NO1` (stereo not shown) [I-388], the “Herbicidal activities, Leptochloa chinensis (inhibition rate class)” value in assay [1] was “A (A indicates that the inhibition rate was greater than or equal to 80% to 100%)”. Moreover, the inhibition at 120 g/ha is 60 to 80% in assay [2], 80 to 100% in assay [3], 60 to 80% in assay [4] and 60 to 80% in assay [5]. Also, in assay [7], the “Herbicidal activities, Alopecurus japonicus (inhibition rate class)” value is “A (A indicates that the inhibition rate was greater than or equal to 80% to 100%)”. Besides, the “Herbicidal activities, Alopecurus myosuroides (inhibition rate class)” value in assay [6] is “A (A indicates that the inhibition rate was greater than or equal to 80% to 100%)”. The “Herbicidal activities, Lolium multiflorum (inhibition rate class)” value in assay [8] is reported as “B (B indicates that the inhibition rate was greater than or equal to 60% to less than 80%)”.

For the compound `COC(=O)C1CC(NC(=O)C2(C)CC(c3cc(Cl)cc(C(F)(F)F)c3)=NO2)CO1` (stereo not shown) [I-386], in assay [1], the “Herbicidal activities, Leptochloa chinensis (inhibition rate class)” value is listed as “A (A indicates that the inhibition rate was greater than or equal to 80% to 100%)”. For the same compound, the inhibition at 120 g/ha lay within 80 to 100% in assay [2], 80 to 100% in assay [3], 40 to 60% in assay [4] and 60 to 80% in assay [5]. In addition, the “Herbicidal activities, Alopecurus japonicus (inhibition rate class)” value in assay [7] is “A (A indicates that the inhibition rate was greater than or equal to 80% to 100%)”. Also, in assay [6], the “Herbicidal activities, Alopecurus myosuroides (inhibition rate class)” value is listed as “A (A indicates that the inhibition rate was greater than or equal to 80% to 100%)”. Moreover, the “Herbicidal activities, Lolium multiflorum (inhibition rate class)” value in assay [8] is given as “A (A indicates that the inhibition rate was greater than or equal to 80% to 100%)”.

With `COC(=O)C1CC(NC(=O)C2(C)CC(c3cc(Cl)cc(OC(F)(F)F)c3)=NO2)CO1` (stereo not shown) [I-387], the “Herbicidal activities, Leptochloa chinensis (inhibition rate class)” value in assay [1] is recorded as “A (A indicates that the inhibition rate was greater than or equal to 80% to 100%)”. Moreover, the inhibition at 120 g/ha in assay [2] lay in the range of 80 to 100%; in assay [3], 80 to 100%; in assay [4], 60 to 80%; in assay [5], 60 to 80%. Also, the “Herbicidal activities, Alopecurus japonicus (inhibition rate class)” value in assay [7] is listed as “A (A indicates that the inhibition rate was greater than or equal to 80% to 100%)”. The “Herbicidal activities, Alopecurus myosuroides (inhibition rate class)” value in assay [6] is “A (A indicates that the inhibition rate was greater than or equal to 80% to 100%)”. The “Herbicidal activities, Lolium multiflorum (inhibition rate class)” value in assay [8] was “A (A indicates that the inhibition rate was greater than or equal to 80% to 100%)”.

With `O=C(O)C1CC(NC(=O)C2(C(F)(F)F)CC(c3cc(Cl)cc(OC(F)F)c3)=NO2)CO1` (stereo not shown) [I-395], the “Herbicidal activities, Leptochloa chinensis (inhibition rate class)” value in assay [1] is reported as “A (A indicates that the inhibition rate was greater than or equal to 80% to 100%)”. In addition, the inhibition at 120 g/ha in assay [2], in assay [3], in assay [4] and in assay [5] was 60 to 80% in each case. For the same compound, in assay [6], the “Herbicidal activities, Alopecurus myosuroides (inhibition rate class)” value is “A (A indicates that the inhibition rate was greater than or equal to 80% to 100%)”. The “Herbicidal activities, Lolium multiflorum (inhibition rate class)” value in assay [8] is “A (A indicates that the inhibition rate was greater than or equal to 80% to 100%)”.

For the compound `COC(=O)C1CC(NC(=O)C2(C(F)(F)F)CC(c3cc(Cl)cc(C(F)(F)F)c3)=NO2)CO1` (stereo not shown) [I-399], the “Herbicidal activities, Leptochloa chinensis (inhibition rate class)” value in assay [1] was “A (A indicates that the inhibition rate was greater than or equal to 80% to 100%)”. Besides, the inhibition at 120 g/ha in assay [2] lay in the range of 80 to 100%; in assay [3], 80 to 100%; in assay [4] it was 60 to 80%; in assay [5], 60 to 80%. Further, the “Herbicidal activities, Alopecurus japonicus (inhibition rate class)” value in assay [7] is on record as “B (B indicates that the inhibition rate was greater than or equal to 60% to less than 80%)”. In assay [6], the “Herbicidal activities, Alopecurus myosuroides (inhibition rate class)” value is on record as “A (A indicates that the inhibition rate was greater than or equal to 80% to 100%)”. Besides, the “Herbicidal activities, Lolium multiflorum (inhibition rate class)” value in assay [8] is “B (B indicates that the inhibition rate was greater than or equal to 60% to less than 80%)”.

In the case of `COC(=O)C1CC(NC(=O)C2(C(F)(F)F)CC(c3cc(F)cc(OC(F)(F)F)c3)=NO2)CO1` (stereo not shown) [I-393], in assay [1], the “Herbicidal activities, Leptochloa chinensis (inhibition rate class)” value is given as “A (A indicates that the inhibition rate was greater than or equal to 80% to 100%)”. Also, the inhibition at 120 g/ha in assay [2] is 60 to 80%; in assay [3], 80 to 100%; in assay [4], 60 to 80%; in assay [5] it was 60 to 80%. Besides, the “Herbicidal activities, Alopecurus japonicus (inhibition rate class)” value in assay [7] is given as “A (A indicates that the inhibition rate was greater than or equal to 80% to 100%)”. The “Herbicidal activities, Alopecurus myosuroides (inhibition rate class)” value in assay [6] is given as “A (A indicates that the inhibition rate was greater than or equal to 80% to 100%)”. The “Herbicidal activities, Lolium multiflorum (inhibition rate class)” value in assay [8] is “A (A indicates that the inhibition rate was greater than or equal to 80% to 100%)”.

Turning to `CC1(C(=O)N[C@H]2CO[C@@H](C(=O)O)C2)CC(c2cc(F)cc(OC(F)(F)F)c2)=NO1` (mixture of isomers) [I-378], the “Herbicidal activities, Leptochloa chinensis (inhibition rate class)” value in assay [1] was “A (A indicates that the inhibition rate was greater than or equal to 80% to 100%)”. The inhibition at 120 g/ha in assay [2] fell in the range of 80 to 100%; in assay [3] it was 80 to 100%; in assay [4], 40 to 60%; in assay [5], 60 to 80%. In addition, the “Herbicidal activities, Alopecurus japonicus (inhibition rate class)” value in assay [7] is reported as “A (A indicates that the inhibition rate was greater than or equal to 80% to 100%)”. Besides, the “Herbicidal activities, Alopecurus myosuroides (inhibition rate class)” value in assay [6] was “A (A indicates that the inhibition rate was greater than or equal to 80% to 100%)”. In assay [8], the “Herbicidal activities, Lolium multiflorum (inhibition rate class)” value is reported as “A (A indicates that the inhibition rate was greater than or equal to 80% to 100%)”.

As to `COC(=O)[C@H]1C[C@@H](NC(=O)C2(C)CC(c3cc(F)cc(C(F)(F)F)c3)=NO2)CO1` (mixture of isomers) [I-377], the “Herbicidal activities, Leptochloa chinensis (inhibition rate class)” value in assay [1] is “A (A indicates that the inhibition rate was greater than or equal to 80% to 100%)”. Besides, the inhibition at 120 g/ha was in the range of 80 to 100% in assay [2], 80 to 100% in assay [3], 40 to 60% in assay [4] and 60 to 80% in assay [5]. The “Herbicidal activities, Alopecurus japonicus (inhibition rate class)” value in assay [7] is “A (A indicates that the inhibition rate was greater than or equal to 80% to 100%)”. In assay [6], the “Herbicidal activities, Alopecurus myosuroides (inhibition rate class)” value is recorded as “A (A indicates that the inhibition rate was greater than or equal to 80% to 100%)”. In addition, the “Herbicidal activities, Lolium multiflorum (inhibition rate class)” value in assay [8] is reported as “A (A indicates that the inhibition rate was greater than or equal to 80% to 100%)”.
